Results as given in ChEMBL document CHEMBL3763153, “Recent Update on Human Lactate Dehydrogenase Enzyme 5 (hLDH5) Inhibitors: A Promising Approach for Cancer Chemotherapy” (J Med Chem, 2016).

Experiments:
[1] = target: L-lactate dehydrogenase B chain (Homo sapiens, UniProt P07195)
Description: Competitive inhibition of human LDH1 in presence of NADH

[2] = target: T1, L-lactate dehydrogenase A chain (Homo sapiens, UniProt P00338)
Description: Competitive inhibition of human LDH5 in presence of NADH

[3] = target: T1, L-lactate dehydrogenase A chain; experiment: Competitive inhibition of human LDH5 incubated for 15 mins in presence of NADH by fluorescence analysis

L-lactate dehydrogenase B chain, sequence (P07195 whole entry): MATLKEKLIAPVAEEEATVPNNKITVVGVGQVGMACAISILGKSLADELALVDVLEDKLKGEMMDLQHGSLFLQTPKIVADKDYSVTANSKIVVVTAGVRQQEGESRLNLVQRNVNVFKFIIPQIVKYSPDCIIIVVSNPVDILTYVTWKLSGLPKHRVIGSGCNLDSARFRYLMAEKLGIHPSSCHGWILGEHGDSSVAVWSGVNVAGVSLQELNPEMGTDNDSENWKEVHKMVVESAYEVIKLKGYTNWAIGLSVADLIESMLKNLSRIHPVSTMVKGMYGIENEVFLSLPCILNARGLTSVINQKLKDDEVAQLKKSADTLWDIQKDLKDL

Row | Ki [1] | Ki [2] | Structure (SMILES) | other results
1 | 92 µM | 2500 nM | Cc1cc2c(C(C)C)c(O)c(O)c3c2c(c1-c1c(C)cc2c(C(C)C)c(O)c(O)c4c2c1OC4=N)OC3=N | 
2 | 0.7 µM | 1300 nM | Cc1cc2c(C(C)C)c(O)c(O)c(C(=O)O)c2cc1-c1ccc2c(C(C)C)c(O)c(O)c(C(=O)O)c2c1 | 
3 | > 125 µM | 3000 nM | Cc1ccccc1-c1cc2c(C(=O)O)c(O)c(O)c(C(C)C)c2cc1C | 
4 |  |  | O=C(O)CCCCn1cc(CCCCn2cc(C3=C(c4c[nH]c5ccccc45)C(=O)NC3=O)c3ccccc32)nn1 | IC50 [2]: 35.9 µM
5 |  |  | O=C(O)c1cc2c(C(F)(F)F)cc(-c3ccccc3)cc2n1O[C@@H]1O[C@H](CO)[C@@H](O)[C@H](O)[C@H]1O | Ki [3]: 19.5 µM
6 |  |  | O=C(O)CCCc1ccc(-n2cc(CCCn3cc(C4=C(c5c[nH]c6ccccc56)C(=O)NC4=O)c4ccccc43)nn2)cc1 | IC50 [2]: 14.8 µM
7 | 8 µM | 30 nM | Cc1ccc(-c2cc3c(C(=O)O)c(O)c(O)c(C(C)C)c3cc2C)cc1 | 
8 |  | 9100 nM | CCCCC(=O)Oc1c(-c2c(C)cc3c(C(C)C)c(O)c(O)c(C#N)c3c2OC(=O)CCCC)c(C)cc2c(C(C)C)c(O)c(O)c(C#N)c12 | 
9 |  | 200 nM | Cc1cccc(-c2cc3c(C(=O)O)c(O)c(O)c(C(C)C)c3cc2C)c1 | 
10 | 0.4 µM | 600 nM | Cc1cc2c(C(C)C)c(O)c(O)c3c2c(c1-c1c(C)cc2c(C(C)C)c(O)c(O)c4c2c1OC4=O)OC3=O | 
11 | 8 µM | 1000 nM | Cc1cc2c(C(C)C)c(O)c(O)c(C(=O)O)c2cc1Cc1ccc(Cl)cc1 | 
12 |  | 2000 nM | CC(=O)Oc1c(-c2c(C)cc3c(C(C)C)c(O)c(O)c(C#N)c3c2OC(C)=O)c(C)cc2c(C(C)C)c(O)c(O)c(C#N)c12 | 
13 | 94.4 µM |  | NC(=O)C(=O)O [OXAMATE] | 

Row | Structure (SMILES) | Ki [1] | Ki [2] | other results
14 | Cc1cc2c(C(C)C)c(O)c(O)c(C=O)c2c(O)c1-c1c(C)cc2c(C(C)C)c(O)c(O)c(C=O)c2c1O [GOSSYPOL] |  | 1900 nM | 
15 | CCCc1c(O)c(O)c(C(=O)O)c2ccc(C)cc12 |  | 1000 nM | 
16 | Cc1cc2c(C(C)C)c(O)c(O)c(C(=O)O)c2cc1Cc1ccccc1 |  | 200 nM | 
